The results in this text go back to patent US20240032541A1, “HERBICIDAL COMPOUNDS” (SYNGENTA CROP PROTECTION AG, priority 2020, published 2024).

The structures appear in SMILES notation.

Common to all, as to assay type: in vivo
In experiment [1] the test system is Amaranthus retoflexus (AMARE). The experiment is described as follows: Post-emergence herbicide glasshouse test. The note with it: post-emergence (sprayed after 8 days cultivation), 250 g/ha, evaluated after 13 days. Here is the method: (§1) Seeds of a variety of test species are sown in standard soil in pots Amaranthus retoflexus (AMARE), Echinochloa crus-galli (ECHCG), Setaria faberi (SETFA)). After cultivation for one day (pre-emergence) or after 8 days cultivation (post-emergence) under controlled conditions in a glasshouse (at 24/16° C., day/night; 14 hours light; 65% humidity), the plants are sprayed with an aqueous spray solution derived from the formulation of the technical active ingredient in acetone/water (50:50) solution containing 0.5% Tween 20 (polyoxyethelyene sorbitan monolaurate, CAS RN 9005-64-5). Compounds are applied at 250 g/ha unless otherwise stated. The test plants are then grown in a glasshouse under controlled conditions in a glasshouse (at 24/16° C., day/night; 14 hours light; 65% humidity) and watered twice daily. After 13 days for pre and post-emergence, the test is evaluated for the percentage damage caused to the plant. The biological activities are shown in the following table on a five-point scale (5=81-100%; 4=61-80%; 3=41-60%; 2=21-40%; 1=0-20%).

Experiment [2] has as its system Echinochloa crus-galli (ECHCG). The experiment is described as follows: Post-emergence herbicide glasshouse test. The note with it: post-emergence (sprayed after 8 days cultivation), 250 g/ha, evaluated after 13 days. Here is the method: as §1
Experiment [3] has as its system Setaria faberi (SETFA). The experiment is described as follows: Post-emergence herbicide glasshouse test. The note with it: post-emergence (sprayed after 8 days cultivation), 250 g/ha, evaluated after 13 days. Here is the method:
as §1

The subject of experiment [4] is Amaranthus retoflexus (AMARE). The experiment is described as follows: Pre-emergence herbicide glasshouse test. The note with it: pre-emergence (sprayed after one day cultivation), 250 g/ha, evaluated after 13 days. How it is done: as §1
Experiment [5] concerns Echinochloa crus-galli (ECHCG). The experiment is described as follows: Pre-emergence herbicide glasshouse test. As to conditions: pre-emergence (sprayed after one day cultivation), 250 g/ha, evaluated after 13 days. Here is the method: as §1
Experiment [6] relates to Setaria faberi (SETFA). Nature of the experiment: Pre-emergence herbicide glasshouse test. As to conditions: pre-emergence (sprayed after one day cultivation), 250 g/ha, evaluated after 13 days. How it is done:
as §1

With `COc1nc(CCCC(F)(F)F)c2c(Oc3ncc(Cl)cn3)cccc2n1` [Compound 1.014, 5-(5-chloropyrimidin-2-yl)oxy-2-methoxy-4-(4,4,4-trifluorobutyl)quinazoline], the “percentage damage caused to the plant, five-point scale, AMARE” value (“percentage damage caused … AMARE” for short) in experiment [1] and in experiment [4] was 5 (5=81-100%) each time. Further, the “percentage damage caused to the plant, five-point scale, ECHCG” value (“percentage damage caused … ECHCG” for short) in experiment [2] and in experiment [5] was 5 (5=81-100%) each time. For the same molecule, the “percentage damage caused to the plant, five-point scale, SETFA” value (“percentage damage caused … SETFA” for short) in experiment [3] and in experiment [6] was 5 (5=81-100%) in each case.

On to `FC(F)(F)CCc1nc(C(F)(F)F)nc2cccc(Oc3ncc(Cl)cn3)c12` [Compound 1.022], for which the “percentage damage caused … AMARE” value in experiment [1] is on record as 4 (4=61-80%); in experiment [4] it was 5 (5=81-100%). Also, the “percentage damage caused … ECHCG” value in experiment [2] is on record as 4 (4=61-80%); in experiment [5], 5 (5=81-100%). For the same molecule, the “percentage damage caused … SETFA” value in experiment [3] is 4 (4=61-80%); in experiment [6], 5 (5=81-100%).

Turning to `FC(F)(F)CCCc1nc(C2CC2)nc2cccc(Oc3ncc(Cl)cn3)c12` [Compound 1.036], the “percentage damage caused … AMARE” value was 4 (4=61-80%) in experiment [1] and 2 (2=21-40%) in experiment [4]. Further, the results for the “percentage damage caused … ECHCG” value in experiment [2] and in experiment [5] were 3 (3=41-60%) and 4 (4=61-80%), respectively. The “percentage damage caused … SETFA” value in experiment [3] is 2 (2=21-40%); in experiment [6], 5 (5=81-100%).

For `Cc1nc2cccc(Oc3ncc(Cl)cn3)c2c(CCCC(F)(F)F)c1C#N` [Compound 1.043, 5-(5-chloropyrimidin-2-yl) oxy-2-methyl-4-(4,4,4-trifluorobutyl) quinoline-3-carbonitrile], the “percentage damage caused … AMARE” value is 2 (2=21-40%) in experiment [1] and 0 in experiment [4]. In addition, the “percentage damage caused … ECHCG” value in experiment [2] and in experiment [5] was 1 (1=0-20%) throughout. The “percentage damage caused … SETFA” value in experiment [3] and in experiment [6] was 2 (2=21-40%) each time.

For `Cc1nc(OCCC(F)(F)F)c2c(Oc3ncc(Cl)cn3)cccc2n1` [Compound 1.007], the “percentage damage caused … AMARE” value in experiment [1] is 3 (3=41-60%); in experiment [4], 2 (2=21-40%). Also, the “percentage damage caused … ECHCG” value in experiment [2] and in experiment [5] was 1 (1=0-20%) each time. The “percentage damage caused … SETFA” value in experiment [3] was 1 (1=0-20%); in experiment [6], 3 (3=41-60%).

Take `Clc1cnc(Oc2cccc3cccc(Oc4ncc(Cl)cn4)c23)nc1` [Compound 1.001, 5-CHLORO-2-[[8-(5-CHLOROPYRIMIDIN-2-YL)OXY-1-NAPHTHYL]OXY]PYRIMIDINE]: the “percentage damage caused … AMARE” value in experiment [1] and in experiment [4] was 3 (3=41-60%) throughout. The “percentage damage caused … ECHCG” value is 4 (4=61-80%) in experiment [2] and 3 (3=41-60%) in experiment [5]. Further, the “percentage damage caused … SETFA” value in experiment [3] and in experiment [6] was 4 (4=61-80%) each time.

For `FC(F)(F)CCCc1nccc2cccc(Oc3ncc(Cl)cn3)c12` [Compound 1.012, 8-(5-chloropyrimidin-2-yl)oxy-1-(4,4,4-trifluorobutyl)isoquinoline], the “percentage damage caused … AMARE” value in experiment [1] and in experiment [4] was 4 (4=61-80%) each time. In addition, the figures for the “percentage damage caused … ECHCG” value in experiment [2] and in experiment [5] were 4 (4=61-80%) and 5 (5=81-100%), respectively. The “percentage damage caused … SETFA” value in experiment [3] is 4 (4=61-80%); in experiment [6] it was 5 (5=81-100%).

Take `Cc1nc(CCCC(F)(F)F)c2c(Oc3ncc(Cl)cn3)cccc2n1` [Compound 1.013, 5-(5-chloropyrimidin-2-yl)oxy-2-methyl-4-(4,4,4-trifluorobutyl)quinazoline]: the “percentage damage caused … AMARE” value in experiment [1] and in experiment [4] was 3 (3=41-60%) throughout. Moreover, the “percentage damage caused … ECHCG” value in experiment [2] and in experiment [5] was 4 (4=61-80%) each time. Besides, the results for the “percentage damage caused … SETFA” value in experiment [3] and in experiment [6] were 4 (4=61-80%) and 5 (5=81-100%), respectively.

In the case of `COc1cnc(Oc2cccc3nc(C(F)(F)F)nc(CCCC(F)(F)F)c23)nc1` [Compound 1.026], the results for the “percentage damage caused … AMARE” value in experiment [1] and in experiment [4] were 4 (4=61-80%) and 2 (2=21-40%), respectively. Also, the “percentage damage caused … ECHCG” value is listed as 3 (3=41-60%) in experiment [2] and 4 (4=61-80%) in experiment [5]. Further, the “percentage damage caused … SETFA” value in experiment [3] and in experiment [6] was 4 (4=61-80%) in each case.

As for `Cc1nc(CCCC(F)(F)F)c2c(Oc3ncc(Cl)cn3)ccc(Cl)c2n1` [Compound 1.019, 8-chloro-5-(5-chloropyrimidin-2-yl)oxy-2-methyl-4-(4,4,4-trifluorobutyl)quinazoline], the entries for the “percentage damage caused … AMARE” value in experiment [1] and in experiment [4] were 4 (4=61-80%) and 2 (2=21-40%), respectively. The “percentage damage caused … ECHCG” value is 3 (3=41-60%) in experiment [2] and 4 (4=61-80%) in experiment [5]. For the same molecule, the “percentage damage caused … SETFA” value is listed as 2 (2=21-40%) in experiment [3] and 4 (4=61-80%) in experiment [6].

With `FC(F)(F)CCCc1nc(Br)nc2cccc(Oc3ncc(Cl)cn3)c12` [Compound 1.029], the “percentage damage caused … AMARE” value is reported as 4 (4=61-80%) in experiment [1] and 1 (1=0-20%) in experiment [4]. The “percentage damage caused … ECHCG” value in experiment [2] and in experiment [5] was 1 (1=0-20%) in each case. Moreover, the “percentage damage caused … SETFA” value in experiment [3] is given as 2 (2=21-40%); in experiment [6] it was 4 (4=61-80%).

As for `CCCCCCc1nc(CCCC(F)(F)F)c2c(Oc3ncc(Cl)cn3)cccc2n1` [Compound 1.032], the results for the “percentage damage caused … AMARE” value in experiment [1] and in experiment [4] were 5 (5=81-100%) and 4 (4=61-80%), respectively. In addition, the “percentage damage caused … ECHCG” value in experiment [2] is 3 (3=41-60%); in experiment [5], 4 (4=61-80%). The “percentage damage caused … SETFA” value in experiment [3] is given as 3 (3=41-60%); in experiment [6], 4 (4=61-80%).

For the molecule `FC(F)(F)CCOc1nc(C(F)(F)F)nc2cccc(Oc3ncc(Cl)cn3)c12` [Compound 1.006, 5-(5-chloropyrimidin-2-yl)oxy-2-(trifluoromethyl)-4-(3,3,3-trifluoropropoxy)quinazoline], the “percentage damage caused … AMARE” value in experiment [1] and in experiment [4] was 5 (5=81-100%) throughout. Moreover, the “percentage damage caused … ECHCG” value in experiment [2] and in experiment [5] was 3 (3=41-60%) throughout. Besides, the figures for the “percentage damage caused … SETFA” value in experiment [3] and in experiment [6] were 3 (3=41-60%) and 5 (5=81-100%), respectively.

Regarding `Cc1ccc(Oc2ncc(Cl)cn2)c2c(CCCC(F)(F)F)nc(C(F)(F)F)nc12` [Compound 1.046, 5-(5-chloropyrimidin-2-yl)oxy-8-methyl-4-(4,4,4-trifluorobutyl)-2-(trifluoromethyl)quinazoline], the “percentage damage caused … AMARE” value in experiment [1] was 4 (4=61-80%); in experiment [4] it was 2 (2=21-40%). In addition, the “percentage damage caused … ECHCG” value is 3 (3=41-60%) in experiment [2] and 2 (2=21-40%) in experiment [5]. The results for the “percentage damage caused … SETFA” value in experiment [3] and in experiment [6] were 2 (2=21-40%) and 3 (3=41-60%), respectively.

For the molecule `Fc1cnc(Oc2cccc3nc(C(F)(F)F)nc(CCCC(F)(F)F)c23)nc1` [Compound 1.011], the “percentage damage caused … AMARE” value in experiment [1] and in experiment [4] was 5 (5=81-100%) each time. For the same molecule, the “percentage damage caused … ECHCG” value in experiment [2] and in experiment [5] was 5 (5=81-100%) throughout. Also, the “percentage damage caused … SETFA” value in experiment [3] and in experiment [6] was 5 (5=81-100%) in each case.
